Key:
Format in all cases: cell-based, Human
HCT116 p53−/− cells [1] = assay: Analysis of apoptosis by flow cytometry (Annexin V-FITC/PI), p53-deficient cells; details: 48 hours
Method: (§1) Annexin V-FITC/PI double staining method was employed for the apoptosis assay in HCT116 p53+/+ and HCT116 p53−/− cells (1×10^6/well, 6-well plate). After 48 hours of treatment with APTM, cells were harvested in 15 ml centrifuge tubes by gentle scraping followed by centrifugation at 300×g for 5 minutes at room temperature. Cell suspension was washed two times with cold PBS by centrifugation at 300×g for 5 minutes at room temperature. Then cells were harvested, washed twice with cold PBS, and resuspended in 1×binding buffer (100 μL). Cells were transferred into a 1.5 ml micro-centrifuge tubes and stained with propidium iodide (5 μL) and FITC annexin V (5 μL). Cells were briefly vortexed after incubation for 15 minutes in the dark at room temperature. Then cells were filtered and analyzed by flow cytometry. Total apoptotic cells (FITC to Annexin V positive) were counted.

HCT116 p53−/− cells [2] = assay: In vitro cell proliferation assay (SRB assay) on HCT116 p53-/- cells
Method: (§2) Human colon cancer cell line HCT116 (p53+/+) was purchased from ATCC and the p53−/− HCT116 cell line was provided by Bert Vogelstein, Johns Hopkins University. Cells were cultured in McCoy's 5A medium supplemented with 10% FBS, 100 units/ml penicillin G, and 100 μg/ml streptomycin in humidified atmosphere with 5% CO2. Cells were passaged twice weekly to maintain logarithmic growth.
(§3) The anti-proliferative effects of APTM on cancer cell lines were assessed by sulforhodamine B (SRB) colorimetric assay. Cells were seeded in 96-well plates at densities of 5,000 cells per well and cultured overnight. Then cells were susceptible to APTM at indicated concentrations and cultured for indicated times. After incubation, attached cells were fixed with 50 μL cold 50% (w/v) trichloroacetic acid (TCA) for 1 hour at 4° C., washed 5 times with slow-running tap water, and stained with 100 μL 0.4% (w/v) SRB. Optical density at 515 nm (OD515) was measured using a microplate reader (Molecular Devices) after mixing the protein-bound dye with 200 μL 10 mM Tris base solution (pH 10.5). The relative cell growth rate was determined with the following equation: Relative Growth (%)=OD (treated)/OD (control). The IC50 value was defined as the concentration required for a 50% reduction in cell growth.

HCT116 (p53+/+) cells = assay: In vitro cell proliferation assay (SRB assay) on HCT116 cells; details: for relative growth rate: 10 μM APTM, percentage of control
Method: as §2, §3

HCT116 p53+/+ cells = assay: Analysis of apoptosis by flow cytometry (Annexin V-FITC/PI); details: 48 hours, control 2.53%
Method: as §1

HCT116 cells [3] = assay: Analysis of cell cycle by flow cytometry (PI staining); details: 48 hours
Method: Cell cycle distribution was determined by staining DNA with propidium iodide (PI). Briefly, 1.0×10^6 cells were incubated with or without APTM for 48 hours. Cells were washed with cold PBS and fixed in 70% ethanol at −20° C. for 2 hours. After washing with PBS, cells were stained with cold PI solution (20 μg/ml PI and 200 μg/mI RNase in PBS) for 30 minutes at room temperature in the dark. The percentage of cells in different phases of the cell cycle was determined by flow cytometer (BD Bioscience) and analyzed using FlowJo software.

[4] = system: Bax and cPARP expression in HCT116 p53−/− cells; assay: Western blotting of apoptosis markers, p53-deficient cells; details: different APTM concentrations
Method: (§4) HCT116 cells were treated with APTM at indicated concentrations for 48 hours, and harvested via trypsinization. Protein samples were prepared by scratching cells in RIPA buffer containing protease inhibitor cocktail (Roche) and diluted in SDS-PAGE protein sample buffer. Samples were heated for 5 minutes at 100° C. Protein concentrations were measured using Direct Detect® Infrared Spectrometer (Millipore, USA) according to the manufacturer's instructions. Equal amount of proteins were loaded on 4-20% SDS-polyacrylamide (PAGE) gel. After electrophoresis, gels were transferred to a PVDF membrane (Millipore) and incubated with primary antibodies overnight at 4° C. The membranes were then washed with TBST and incubated with horseradish peroxidase-conjugated anti-rabbit or anti-mouse antibodies (1:10000, Santa Cruz, Calif., USA) for 45 min at room temperature. Proteins were visualized with SuperSignal West Dura Extended Duration Substrate or SuperSignal West Pico Chemiluminescent Substrate (Thermo Scientific) using the Amersham Imager 600 western blotting system.

HCT116 cells [5] = assay: Colony formation assay; details: 8 days
Method: HCT116 cells were plated at 3,000 cells/well in six-well plates and cultured with indicated concentrations of APTM for 8 days. Cells were stained with 0.2% (w/v) crystal violet in buffered formalin for 20 minutes, and colonies were then photographed and quantified as previously described.

HCT116 cells [6] = assay: Assessment of cell morphological changes (Hoechst 33258 staining); details: HCT116 cells, 3, 10 and 30 μM, 48 hours
Method: (§5) Cells were plated in 6-well plates (200,000 cells/well) and treated with indicated concentrations of APTM. After incubation for 48 hours, cells were collected, washed with PBS and stained with Hoechst 33258 ([…]) in buffered formalin solution containing 5.6% NP-40. Apoptotic and living cells were viewed through DAPI filter of fluorescence inverted microscope (Leica DM2500 Fluorescence Microscope) at 400× magnifications.

[7] = system: p53/Bax/cPARP signaling axis in HCT116 cells; assay: Western blotting of apoptosis markers p53, Bax, cPARP; details: 48 hours
Method: as §4

HCT116 p53−/− cells [8] = assay: Assessment of cell morphological changes (Hoechst 33258 staining), p53-deficient cells; details: highest concentration of 30 μM, 48 hours
Method: as §5

Which “APTM induced apoptosis (annexin V-FITC/PI flow cytometry)” value (HCT116 p53−/− cells [1]) does the source give for `Cc1cccc(C)c1Nc1sc(C(=O)c2ccc(F)cc2)c(N)c1S(=O)(=O)c1ccccc1` [APTM, [3-Amino-5-[(2,6-dimethylphenyl)amino]-4-(phenylsulfonyl)-2-thienyl](4-fluorophenyl)methanone] here?
Its value is “resistant”.

And the “resistance of p53 deficient cells versus HCT116 p53+/+ cells (IC50 ratio)” value (HCT116 p53−/− cells [2]; HCT116 p53−/− vs HCT116 p53+/+)?
The value was “more than 5 fold”.

And the IC50 (HCT116 p53−/− cells [2]; Homo sapiens, HCT-116, HCT116 p53−/− cells, 33.3 μM highest concentration tested, read-out: IC50 value (50% reduction in cell growth))?
Its IC50 is > 33.3 µM.

What about the relative growth rate (HCT116 (p53+/+) cells; 24 hours) of the same molecule?
The relative growth rate was 76.36%.

What about the relative growth rate (HCT116 (p53+/+) cells; 72 hours) of the same molecule?
The relative growth rate was 24.57%.

And the IC50 (HCT116 (p53+/+) cells; Homo sapiens, HCT-116, 48 hours, SRB assay, read-out: IC50 value (50% reduction in cell growth))?
The IC50 was 6.57 µM.

And the “percentage of apoptotic cells (annexin V positive)” value (“percentage of apoptotic cells” for short) (HCT116 p53+/+ cells; 3 μM)?
The value was 7.67%.

And the “percentage of apoptotic cells” value (HCT116 p53+/+ cells; 10 μM)?
Its value is 20.86%.

What about the “percentage of apoptotic cells” value (HCT116 p53+/+ cells; 30 μM) of the same molecule?
The value was 43.7%.

What about the “sub-G0/G1 fraction of cells” value (HCT116 cells [3]; concentration-dependent) of the same molecule?
The value was “increased”.

What about the “proportions of cells in G0/G1, S and G2/M phases” value (HCT116 cells [3]; different concentrations) of the same molecule?
The value was “almost unchanged”.

What about the “Bax and cPARP expression” value [4] of the same molecule?
Its value is “blunted”.

What about the Colony formation ability (HCT116 cells [5]; 3.0 μM) of the same molecule?
The Colony formation ability was “significantly decreased”.

And the Colony formation ability (HCT116 cells [5]; 10.0 μM)?
The Colony formation ability was “almost vanished”.

What about the “apoptotic morphological changes (Hoechst staining)” value (HCT116 cells [6]) of the same molecule?
The value was “typical morphological characteristics of apoptosis”.

What about the Bax level [7] of the same molecule?
The Bax level was “induced”.

What about the “cleaved nuclear poly(ADP-ribose) polymerase (cPARP) level” value [7] of the same molecule?
The value was “concentration-dependently induction”.

And the p53 protein level [7]?
Its p53 protein level is “substantially induced”.

And the “nuclear staining / apoptotic morphological changes (Hoechst staining)” value (HCT116 p53−/− cells [8])?
Its value is “reserved normal nuclear staining”.
